pIC50: −log10 of the molar value.
Target: PDE1A (Homo sapiens, UniProt P54750)
Test: PDE1A dose response, Cyclic Nucleotide Phosphodiesterase Assay Kit from Biomol (colorimetric)
Assay type: biochemical
Conditions: purified PDE1A enzyme, 100 μM cAMP
In short: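 Purified PDE1A hydrolysed 100 μM cAMP with 5′-nucleotidase in Tris 20 mM pH 7.4 with calmodulin, Ca2+, Mg2+, 45 min at 37° C. Released phosphate read by malachite-green absorbance at 615 nm. Duplicate 8-point 1/3 dilutions from 20 μM, 1% DMSO; 10 μM vardenafil defined 100% inhibition.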

Row | pIC50 | Compound
1 | 6.30 to 7.00 | O=c1[nH]c(C2CN(c3ncc(-c4ccccc4)s3)C2)nc2c1cnn2C1CCCCC1 [Example 160, 1-Cyclohexyl-6-(1-(5-phenylthiazol-2-yl)azetidin-3-yl)-1H-pyrazolo[3,4-d]pyrimidin-4-(5H)-one]
2 | 7.00 to 9.00 | Cc1nn(C2CCCCC2)c2nc(C3CN(C(=O)NCc4ccc(F)cc4)C3)[nH]c(=O)c12 [Example 27, 3-(1-cyclohexyl-3-methyl-4-oxo-4,5-dihydro-1H-pyrazolo[3,4-d]pyrimidin-6-yl)-N-(4-fluorobenzyl)azetidine-1-carboxamide]
3 | 6.30 to 7.00 | COc1ccccc1C(=O)N1CCCC(c2nc3c(cnn3-c3ccccc3)c(=O)[nH]2)C1 (stereo not shown) [Example 65, 6-(1-(2-methoxybenzoyl)piperidin-3-yl)-1-phenyl-1H-pyrazolo[3,4-d]pyrimidin-4(5H)-one]
4 | 6.30 to 7.00 | COc1ccc(S(=O)(=O)N2CCCC(c3nc4c(cnn4C4CCCCC4)c(=O)[nH]3)C2)cc1 (stereo not shown) [Example 51, 1-cyclohexyl-6-(1-(4-methoxyphenylsulfonyl)piperidin-3-yl)-1H-pyrazolo[3,4-d]pyrimidin-4(5H)-one]
5 | 6.30 to 7.00 | CN1CCN(Cc2cnc(N3CC(c4nc5c(cnn5C5CCCCC5)c(=O)[nH]4)C3)s2)CC1 [Example 137, 1-cyclohexyl-6-(1-(5-((4-methylpiperazin-1-yl)methyl)thiazol-2-yl)azetidin-3-yl)-1H-pyrazolo[3,4-d]pyrimidin-4(5H)-one]
6 | 7.00 to 9.00 | O=C(NCCC(F)(F)F)N1CC(c2nc3c(cnn3C3CCCCC3)c(=O)[nH]2)C1 [Example 43, 3-(1-cyclohexyl-4-oxo-4,5-dihydro-1H-pyrazolo[3,4-d]pyrimidin-6-yl)-N-(3,3,3-trifluoropropyl)azetidine-1-carboxamide]
7 | 6.30 to 7.00 | O=c1[nH]c(C2CN(c3nnc(-c4ccccc4)o3)C2)nc2c1cnn2C1CCCCC1 [Example 133, 1-cyclohexyl-6-(1-(5-phenyl-1,3,4-oxadiazol-2-yl)azetidin-3-yl)-1H-pyrazolo[3,4-d]pyrimidin-4(5H)-one]
8 | 7.00 to 9.00 | CC(C)(C)n1ncc2c(=O)[nH]c(C3CN(c4nc5ccc(Br)cc5[nH]4)C3)nc21 [Example 126, 6-(1-(6-bromo-1H-benzo[d]imidazol-2-yl)azetidin-3-yl)-1-tert-butyl-1H-pyrazolo[3,4-d]pyrimidin-4(5H)-one]
9 | 6.30 to 7.00 | CC(C)(C)n1ncc2c(=O)[nH]c(C3CN(CC(=O)Nc4ccccc4)C3)nc21 [Example 173, 2-(3-(1-tert-Butyl-4-oxo-4,5-dihydro-1H-pyrazolo[3,4-d]pyrimidin-6-yl)azetidin-1-yl)-N-phenylacetamide]
10 | 6.30 to 7.00 | Cc1nn(C2CCCCC2)c2nc(C3CCCN(C(=O)c4ccc(N(C)C)cc4)C3)[nH]c(=O)c12 (stereo not shown) [Example 59, 1-cyclohexyl-6-(1-(4-(dimethylamino)benzoyl)piperidin-3-yl)-3-methyl-1H-pyrazolo[3,4-d]pyrimidin-4(5H)-one]
11 | 6.30 to 7.00 | O=C(NC1CC1)N1CC(c2nc3c(cnn3C3CCCCC3)c(=O)[nH]2)C1 [Example 69, 3-(1-cyclohexyl-4-oxo-4,5-dihydro-1H-pyrazolo[3,4-d]pyrimidin-6-yl)-N-cyclopropylazetidine-1-carboxamide]
12 | 7.00 to 9.00 | O=C(NC1CCCCC1)N1CC(c2nc3c(cnn3C3CCCCC3)c(=O)[nH]2)C1 [Example 23, N-cyclohexyl-3-(1-cyclohexyl-4-oxo-4,5-dihydro-1H-pyrazolo[3,4-d]pyrimidin-6-yl)azetidine-1-carboxamide]
13 | 7.00 to 9.00 | N#Cc1ccc(N2CC(c3nc4c(cnn4C4CCCCC4)c(=O)[nH]3)C2)cc1 [Example 148, 4-(3-(1-cyclohexyl-4-oxo-4,5-dihydro-1H-pyrazolo[3,4-d]pyrimidin-6-yl)azetidin-1-yl)benzonitrile]
14 | 6.00 to 6.30 | Cc1nn(C2CCCCC2)c2nc(C3CCCN(C(=O)c4ccccc4Cl)C3)[nH]c(=O)c12 (stereo not shown) [Example 91, 6-(1-(2-chlorobenzoyl)piperidin-3-yl)-1-cyclohexyl-3-methyl-1H-pyrazolo[3,4-d]pyrimidin-4(5H)-one]
15 | 5.82 to 6.00 | CC(=O)Nc1ccc(C(=O)N2CCCC(c3nc4c(c(C)nn4C4CCCCC4)c(=O)[nH]3)C2)cc1 (stereo not shown) [Example 113, N-(4-(3-(1-cyclohexyl-3-methyl-4-oxo-4,5-dihydro-1H-pyrazolo[3,4-d]pyrimidin-6-yl)piperidine-1-carbonyl)phenyl)acetamide]
16 | 5.82 to 6.00 | O=c1[nH]c(C2CCCN(c3ccc(C(F)(F)F)cn3)C2)nc2c1cnn2C1CCCCC1 (stereo not shown) [Example 154, 1-cyclohexyl-6-(1-(5-(trifluoromethyl)pyridin-2-yl)piperidin-3-yl)-1H-pyrazolo[3,4-d]pyrimidin-4(5H)-one]
17 | 6.30 to 7.00 | O=c1[nH]c(C2CN(c3ncc(CN4CCOCC4)s3)C2)nc2c1cnn2C1CCCCC1 [Example 134, 1-cyclohexyl-6-(1-(5-(morpholinomethyl)thiazol-2-yl)azetidin-3-yl)-1H-pyrazolo[3,4-d]pyrimidin-4(5H)-one]

Row | pIC50 | Compound
18 | 7.00 to 9.00 | CN1CCN(c2ccc(NC(=O)N3CC(c4nc5c(cnn5C5CCCCC5)c(=O)[nH]4)C3)cc2)CC1 [Example 3, 3-(1-cyclohexyl-4-oxo-4,5-dihydro-1H-pyrazolo[3,4-d]pyrimidin-6-yl)-N-(4-(4-methylpiperazin-1-yl)phenyl)azetidine-1-carboxamide]
19 | 6.00 to 6.30 | O=C(N1CCCCC1)N1CC(c2nc3c(cnn3C3CCCCC3)c(=O)[nH]2)C1 [Example 83, 1-cyclohexyl-6-(1-(piperidine-1-carbonyl)azetidin-3-yl)-1H-pyrazolo[3,4-d]pyrimidin-4(5H)-one]
20 | 7.00 to 9.00 | O=c1[nH]c(C2CN(c3ccc(S(=O)(=O)N4CCOCC4)cc3)C2)nc2c1cnn2C1CCCCC1 [Example 145, 1-Cyclohexyl-6-(1-(4-(Morpholinosulfonyl)phenyl)azetidin-3-yl)-1H-pyrazolo[3,4-d]pyrimidin-4(5H)-one]
21 | 6.30 to 7.00 | O=c1[nH]c(C2CN(c3ccccc3)C2)nc2c1cnn2C1CCCCC1 [Example 168, 1-cyclohexyl-6-(1-phenylazetidin-3-yl)-1H-pyrazolo[3,4-d]pyrimidin-4(5H)-one]
22 | 7.00 to 9.00 | CC(C)(C)n1ncc2c(=O)[nH]c(C3CN(C(=O)OCC4CCCCC4)C3)nc21 [Example 117, cyclohexylmethyl 3-(1-tert-butyl-4-oxo-4,5-dihydro-1H-pyrazolo[3,4-d]pyrimidin-6-yl)azetidine-1-carboxylate]
23 | 6.30 to 7.00 | O=c1[nH]c(C2CN(c3ccc(C(F)(F)F)cc3)C2)nc2c1cnn2C1CCCCC1 [Example 152, 1-cyclohexyl-6-(1-(4-(trifluoromethyl)phenyl)azetidin-3-yl)-1H-pyrazolo[3,4-d]pyrimidin-4(5H)-one]
24 | 7.00 to 9.00 | CN(C)c1ccc(NC(=O)N2CC(c3nc4c(cnn4C4CCCCC4)c(=O)[nH]3)C2)cc1 [Example 9, 3-(1-cyclohexyl-4-oxo-4,5-dihydro-1H-pyrazolo[3,4-d]pyrimidin-6-yl)-N-(4-(dimethylamino)phenyl)azetidine-1-carboxamide]
25 | 6.30 to 7.00 | COc1ccc(S(=O)(=O)N2CCCC(c3nc4c(c(C)nn4-c4ccccc4)c(=O)[nH]3)C2)cc1 (stereo not shown) [Example 75, 6-(1-(4-methoxyphenylsulfonyl)piperidin-3-yl)-3-methyl-1-phenyl-1H-pyrazolo[3,4-d]pyrimidin-4(5H)-one]
26 | 6.30 to 7.00 | Cc1nn(C(C)(C)C)c2nc(C3CN(c4nnnn4-c4ccccc4)C3)[nH]c(=O)c12 [Example 139, 1-tert-butyl-3-methyl-6-(1-(1-phenyl-1H-tetrazol-5-yl)azetidin-3-yl)-1H-pyrazolo[3,4-d]pyrimidin-4(5H)-one]
27 | 6.00 to 6.30 | CC(C)(C)n1ncc2c(=O)[nH]c(C3CN(c4nccs4)C3)nc21 [Example 141, 1-tert-butyl-6-(1-(thiazol-2-yl)azetidin-3-yl)-1H-pyrazolo[3,4-d]pyrimidin-4(5H)-one]
28 | 6.30 to 7.00 | O=c1[nH]c(C2CN(c3ncc(CN4CCCCCC4)s3)C2)nc2c1cnn2C1CCCCC1 [Example 138, 6-(1-(5-(azepan-1-ylmethyl)thiazol-2-yl)azetidin-3-yl)-1-cyclohexyl-1H-pyrazolo[3,4-d]pyrimidin-4(5H)-one]
29 | 6.30 to 7.00 | O=C(NCCc1c[nH]cn1)N1CC(c2nc3c(cnn3C3CCCCC3)c(=O)[nH]2)C1 [Example 62, N-(2-(1H-imidazol-4-yl)ethyl)-3-(1-cyclohexyl-4-oxo-4,5-dihydro-1H-pyrazolo[3,4-d]pyrimidin-6-yl)azetidine-1-carboxamide]
30 | 6.00 to 6.30 | Cc1nn(C2CCCCC2)c2nc(C3CCCN(C(=O)c4ccccc4F)C3)[nH]c(=O)c12 (stereo not shown) [Example 92, 1-cyclohexyl-6-(1-(2-fluorobenzoyl)piperidin-3-yl)-3-methyl-1H-pyrazolo[3,4-d]pyrimidin-4(5H)-one]
31 | 5.82 to 6.00 | COc1ccccc1NC(=O)N1CCCC(c2nc3c(c(C)nn3C3CCCCC3)c(=O)[nH]2)C1 (stereo not shown) [Example 99, 3-(1-cyclohexyl-3-methyl-4-oxo-4,5-dihydro-1H-pyrazolo[3,4-d]pyrimidin-6-yl)-N-(2-methoxyphenyl)piperidine-1-carboxamide]
32 | 6.30 to 7.00 | Cc1nn(C2CCCCC2)c2nc(C3CN(C(=O)c4ccccc4)C3)[nH]c(=O)c12 [Example 72, 6-(1-benzoylazetidin-3-yl)-1-cyclohexyl-3-methyl-1H-pyrazolo[3,4-d]pyrimidin-4(5H)-one]
33 | 7.00 to 9.00 | Cc1nn(C2CCCCC2)c2nc(C3CN(C(=O)NCc4ccc(Cl)c(Cl)c4)C3)[nH]c(=O)c12 [Example 39, 3-(1-cyclohexyl-3-methyl-4-oxo-4,5-dihydro-1H-pyrazolo[3,4-d]pyrimidin-6-yl)-N-(3,4-dichlorobenzyl)azetidine-1-carboxamide]

Row | Compound | pIC50
34 | CC(C)N1CCN(c2ccc(OC(=O)N3CC(c4nc5c(cnn5C(C)(C)C)c(=O)[nH]4)C3)cc2)CC1 [Example 116, 4-(4-Isopropylpiperazin-1-yl)phenyl 3-(1-tert-butyl-4-oxo-4,5-dihydro-1H-pyrazolo [3,4-d]pyrimidin-6-yl)azetidine-1-carboxylate] | 7.00 to 9.00
